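Values below derive from 48-hour exposures of cells grown in 96-well plates, with endpoints linearly interpolated between the two concentrations bracketing the appropriate inhibition level. Definition used: TGI = concentration required for complete inhibition of growth.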
Experiments:
Experiment in all cases: NCI-60 cell line screen, 48 h
[1] = test system: 786-0 renal
[2] = test system: A498 renal
[3] = test system: A549 NSCLC
[4] = test system: ACHN renal
[5] = test system: CAKI-1 renal
[6] = test system: CCRF-CEM leukemia
[7] = test system: COLO 205 colon
[8] = test system: DLD-1 colon
[9] = test system: DMS 273 small cell lung
[10] = test system: EKVX NSCLC
[11] = test system: HCC-2998 colon
[12] = test system: HCT-116 colon
[13] = test system: HCT-15 colon
[14] = test system: HL-60(TB) leukemia
[15] = test system: HOP-18 NSCLC
[16] = test system: HOP-62 NSCLC
[17] = test system: HOP-92 NSCLC
[18] = test system: HT29 colon
[19] = test system: IGROV1 ovarian
[20] = test system: K-562 leukemia
[21] = test system: KM12 colon
[22] = test system: KM20L2 colon
[23] = test system: LOX IMVI melanoma
[24] = test system: LXFL 529 NSCLC
[25] = test system: M14 melanoma
[26] = test system: M19-MEL melanoma
[27] = test system: MALME-3M melanoma
[28] = test system: MOLT-4 leukemia
[29] = test system: NCI-H226 lung
[30] = test system: NCI-H23 lung
[31] = test system: NCI-H460 lung
[32] = test system: NCI-H522 lung
[33] = test system: OVCAR-3 ovarian
[34] = test system: OVCAR-4 ovarian
[35] = test system: OVCAR-5 ovarian
[36] = test system: OVCAR-8 ovarian
[37] = test system: RPMI-8226 leukemia
[38] = test system: RXF 393 renal
[39] = test system: RXF-631 renal
[40] = test system: SF-268 CNS
[41] = test system: SF-295 CNS
[42] = test system: SF-539 CNS
[43] = test system: SK-MEL-2 melanoma
[44] = test system: SK-MEL-28 melanoma
[45] = test system: SK-MEL-5 melanoma
[46] = test system: SK-OV-3 ovarian
[47] = test system: SN12C renal
[48] = test system: SNB-19 CNS
[49] = test system: SNB-75 CNS
[50] = test system: SNB-78 CNS
[51] = test system: SW-620 colon
[52] = test system: TK-10 renal
[53] = test system: U251 CNS
[54] = test system: UACC-257 melanoma
[55] = test system: UACC-62 melanoma
[56] = test system: UO-31 renal
[57] = test system: XF 498 CNS
[58] = test system: DMS 114 small cell lung
[59] = test system: SR leukemia

CC(=O)NNc1nc(C)c(C(/C=C/c2ccc(Cl)cc2)=N\NS(=O)(=O)c2ccc(C)cc2)s1
TGI [1]: > 100 µM | TGI [2]: > 100 µM | TGI [3]: > 100 µM | TGI [4]: > 100 µM | TGI [5]: > 100 µM | TGI [6]: > 100 µM | TGI [7]: > 100 µM | TGI [8]: > 100 µM | TGI [9]: > 100 µM | TGI [10]: > 100 µM | TGI [11]: > 100 µM | TGI [12]: > 100 µM | TGI [13]: > 100 µM | TGI [14]: > 100 µM | TGI [15]: > 100 µM | TGI [16]: > 100 µM | TGI [17]: > 100 µM | TGI [18]: > 100 µM | TGI [19]: > 100 µM | TGI [20]: > 100 µM | TGI [21]: > 100 µM | TGI [22]: > 100 µM | TGI [23]: > 100 µM | TGI [24]: > 100 µM | TGI [25]: > 100 µM | TGI [26]: > 100 µM | TGI [27]: > 100 µM | TGI [28]: > 100 µM | TGI [29]: > 100 µM | TGI [30]: > 100 µM | TGI [31]: > 100 µM | TGI [32]: > 100 µM | TGI [33]: > 100 µM | TGI [34]: > 100 µM | TGI [35]: > 100 µM | TGI [36]: > 100 µM | TGI [37]: > 100 µM | TGI [38]: > 100 µM | TGI [39]: > 100 µM | TGI [40]: > 100 µM | TGI [41]: > 100 µM | TGI [42]: > 100 µM | TGI [43]: > 100 µM | TGI [44]: > 100 µM | TGI [45]: > 100 µM | TGI [46]: > 100 µM | TGI [47]: > 100 µM | TGI [48]: > 100 µM | TGI [49]: > 100 µM | TGI [50]: > 100 µM | TGI [51]: > 100 µM | TGI [52]: > 100 µM | TGI [53]: > 100 µM | TGI [54]: > 100 µM | TGI [55]: > 100 µM | TGI [56]: > 100 µM | TGI [57]: > 100 µM

NC(=O)c1csc(C2C=CC(CO)O2)n1 (centres undefined)
TGI [1]: > 100 µM | TGI [2]: > 100 µM | TGI [3]: > 100 µM | TGI [4]: > 100 µM | TGI [5]: > 100 µM | TGI [6]: > 100 µM | TGI [7]: > 100 µM | TGI [58]: > 100 µM | TGI [9]: > 100 µM | TGI [10]: > 100 µM | TGI [11]: > 100 µM | TGI [12]: > 100 µM | TGI [13]: > 100 µM | TGI [14]: > 100 µM | TGI [15]: > 100 µM | TGI [16]: > 100 µM | TGI [17]: > 100 µM | TGI [18]: > 100 µM | TGI [19]: > 100 µM | TGI [20]: > 100 µM | TGI [21]: > 10 µM | TGI [22]: > 100 µM | TGI [23]: > 100 µM | TGI [24]: > 100 µM | TGI [25]: > 100 µM | TGI [27]: > 100 µM | TGI [28]: > 100 µM | TGI [29]: > 100 µM | TGI [30]: > 100 µM | TGI [31]: > 100 µM | TGI [32]: > 100 µM | TGI [33]: > 10 µM | TGI [34]: > 100 µM | TGI [35]: > 100 µM | TGI [36]: > 100 µM | TGI [37]: > 100 µM | TGI [39]: > 100 µM | TGI [40]: > 100 µM | TGI [41]: > 10 µM | TGI [42]: > 100 µM | TGI [43]: > 100 µM | TGI [44]: > 100 µM | TGI [46]: > 100 µM | TGI [47]: > 100 µM | TGI [48]: > 100 µM | TGI [50]: > 100 µM | TGI [51]: > 100 µM | TGI [52]: > 100 µM | TGI [53]: > 100 µM | TGI [54]: > 100 µM | TGI [55]: > 100 µM | TGI [56]: > 100 µM | TGI [57]: > 100 µM

C=C(C)C1Cc2c(cc(O)c3c(=O)c4ccccc4n(C)c23)O1 (centres undefined)
TGI [2]: 92.6 µM | TGI [3]: > 100 µM | TGI [4]: > 100 µM | TGI [5]: 56.7 µM | TGI [6]: > 100 µM | TGI [7]: > 100 µM | TGI [8]: > 100 µM | TGI [58]: > 100 µM | TGI [9]: > 100 µM | TGI [11]: > 100 µM | TGI [12]: > 100 µM | TGI [13]: > 100 µM | TGI [14]: > 100 µM | TGI [15]: > 100 µM | TGI [16]: 61.3 µM | TGI [17]: 54.5 µM | TGI [18]: > 100 µM | TGI [21]: > 100 µM | TGI [22]: > 100 µM | TGI [23]: 37.2 µM | TGI [24]: > 100 µM | TGI [25]: 90.4 µM | TGI [27]: > 100 µM | TGI [28]: > 100 µM | TGI [29]: > 100 µM | TGI [30]: > 100 µM | TGI [31]: > 100 µM | TGI [32]: 66.1 µM | TGI [34]: 26.7 µM | TGI [35]: > 100 µM | TGI [37]: > 100 µM | TGI [38]: 33.9 µM | TGI [39]: > 100 µM | TGI [40]: 73 µM | TGI [41]: 79.6 µM | TGI [43]: > 100 µM | TGI [44]: > 100 µM | TGI [45]: > 100 µM | TGI [46]: 84.6 µM | TGI [47]: > 100 µM | TGI [48]: 34.5 µM | TGI [49]: 37.2 µM | TGI [50]: > 100 µM | TGI [59]: > 100 µM | TGI [51]: > 100 µM | TGI [52]: 34.8 µM | TGI [53]: > 100 µM | TGI [54]: > 100 µM | TGI [57]: 41.8 µM
